Experimental data reported in ChEMBL document CHEMBL5661980, “Discovery of OSI-906: a selective and orally efficacious dual inhibitor of the IGF-1 receptor and insulin receptor” (Future Med Chem, 2009).

Assays:
[1] = Cmax in Beagle dog measured at 5 mg/kg, po for 1 to 24 hrs by HPLC-MS/MS analysis; format: ADME, organism-based, Canis lupus familiaris; conditions: in vivo, time 1-24 hrs
[2] = Oral bioavailability in CD-1 mouse measured at 25 mg/kg for 1 to 24 hrs by HPLC-MS/MS analysis; format: ADME, organism-based; conditions: in vivo, time 1-24 hrs
[3] = AUC last in Beagle dog measured at 5 mg/kg, po for 1 to 24 hrs by HPLC-MS/MS analysis; format: ADME, organism-based, Canis lupus familiaris; conditions: in vivo, time 1-24 hrs
[4] = Toxicity in athymic nu/nu CD-1 mouse allografted with mouse 3T3 cells expressing human IGF-1R assessed as loss in body weight at 25 mg/kg, po for 12 days relative to control; format: organism-based, NIH3T3; conditions: in vivo, 288 h, time 12 day
[5] = Volume of distribution at steady state in Beagle dog measured at 2.5 mg/kg, iv for 1 to 24 hrs by HPLC-MS/MS analysis; format: ADME, organism-based, Canis lupus familiaris; conditions: in vivo, time 1-24 hrs, read-out: Vdss
[6] = target: Cytochrome P450 2D6 (Homo sapiens, UniProt P10635); experiment: Inhibition of CYP2D6 (unknown origin) in presence of NADPH generating system incubated for 20 mins by luminescent method; format: ADME
Cytochrome P450 2D6, sequence (P10635 whole entry): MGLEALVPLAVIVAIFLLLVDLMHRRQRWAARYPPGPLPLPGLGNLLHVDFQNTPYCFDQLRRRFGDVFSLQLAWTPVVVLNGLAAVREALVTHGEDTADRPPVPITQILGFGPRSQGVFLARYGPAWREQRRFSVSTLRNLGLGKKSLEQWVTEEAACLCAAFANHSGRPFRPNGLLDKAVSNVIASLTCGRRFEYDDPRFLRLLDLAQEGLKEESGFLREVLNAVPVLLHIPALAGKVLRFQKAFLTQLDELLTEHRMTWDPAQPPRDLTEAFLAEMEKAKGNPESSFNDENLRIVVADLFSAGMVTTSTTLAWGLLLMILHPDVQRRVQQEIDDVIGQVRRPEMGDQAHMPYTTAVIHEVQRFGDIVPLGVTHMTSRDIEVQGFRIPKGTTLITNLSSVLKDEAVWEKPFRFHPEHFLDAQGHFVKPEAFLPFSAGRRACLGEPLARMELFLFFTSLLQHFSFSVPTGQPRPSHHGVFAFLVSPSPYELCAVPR

[7] = AUC (0 to infinity) in CD-1 mouse measured at 5 mg/kg, iv for 1 to 24 hrs by HPLC-MS/MS analysis; format: ADME, organism-based; conditions: in vivo, time 1-24 hrs
[8] = test system: NIH3T3; experiment: Antitumor activity against mouse 3T3 cells allografted in athymic nu/nu CD-1 mouse assessed as tumor regression at 25 mg/kg, po for 12 days relative to control; format: functional; conditions: time 12 day
[9] = Cmax in CD-1 mouse measured at 5 mg/kg, po for 1 to 24 hrs by HPLC-MS/MS analysis; format: ADME, organism-based; conditions: in vivo, time 1-24 hrs
[10] = Volume of distribution at steady state in Sprague-Dawley rat measured at 5 mg/kg, iv for 1 to 24 hrs by HPLC-MS/MS analysis; format: ADME, organism-based; conditions: in vivo, time 1-24 hrs, read-out: Vdss
[11] = In vivo inhibition of IGF-1R phosphorylation in athymic nu/nu CD-1 mouse allografted with mouse 3T3 cells expressing human IGF-1R at 75 mg/kg, po measured after 4 to 24 hrs relative to control; format: functional; conditions: nu/nu CD-1, NIH3T3, time 4-24 hrs
[12] = AUC last in CD-1 mouse measured at 25 mg/kg, po for 1 to 24 hrs by HPLC-MS/MS analysis; format: ADME, organism-based; conditions: in vivo, time 1-24 hrs
[13] = AUC last in CD-1 mouse measured at 5 mg/kg, po for 1 to 24 hrs by HPLC-MS/MS analysis; format: ADME, organism-based; conditions: in vivo, time 1-24 hrs
[14] = Oral bioavailability in Sprague-Dawley rat measured at 100 mg/kg for 1 to 24 hrs by HPLC-MS/MS analysis; format: ADME, organism-based; conditions: in vivo, time 1-24 hrs
[15] = Plasma concentration in CD-1 mouse measured at 25 mg/kg, po for 24 hrs by HPLC-MS/MS analysis; format: ADME, organism-based
[16] = Cmax in Sprague-Dawley rat measured at 12.5 mg/kg, po for 1 to 24 hrs by HPLC-MS/MS analysis; format: ADME, organism-based; conditions: in vivo, time 1-24 hrs
[17] = test system: NIH3T3; experiment: Antitumor activity against mouse 3T3 cells allografted in athymic nu/nu CD-1 mouse assessed as tumor growth inhibition at 25 mg/kg, po for 12 days relative to control; format: functional; conditions: NIH3T3, 288 h, time 12 day, read-out: TGI
[18] = Oral bioavailability in Beagle dog measured at 5 mg/kg for 1 to 24 hrs by HPLC-MS/MS analysis; format: ADME, organism-based, Canis lupus familiaris; conditions: in vivo, time 1-24 hrs
[19] = AUC (0 to infinity) in Beagle dog measured at 2.5 mg/kg, iv for 1 to 24 hrs by HPLC-MS/MS analysis; format: ADME, organism-based, Canis lupus familiaris; conditions: in vivo, time 1-24 hrs
[20] = Clearance in Sprague-Dawley rat measured at 5 mg/kg, iv for 1 to 24 hrs by HPLC-MS/MS analysis; format: ADME, organism-based; conditions: in vivo, time 1-24 hrs
[21] = target: Platelet-derived growth factor receptor (Homo sapiens, UniProt P09619+P16234); experiment: Inhibition of PDGFR-alpha/beta (unknown origin) in presence of ATP Km treated at 2 hrs followed by […] ligand addition for 15 mins by ELISA analysis
[22] = Toxicity in athymic nu/nu CD-1 mouse allografted with mouse 3T3 cells expressing human IGF-1R assessed as hyperglycemia at 75 mg/kg, po for 12 days; format: organism-based, NIH3T3; conditions: in vivo, 288 h, time 12 day
[23] = Plasma concentration in athymic nu/nu CD-1 mouse allografted with mouse 3T3 cells expressing human IGF-1R at 75 mg/kg, po measured after 24 hrs; format: ADME, organism-based, NIH3T3
[24] = AUC last in CD-1 mouse measured at 75 mg/kg, po for 1 to 24 hrs by HPLC-MS/MS analysis; format: ADME, organism-based; conditions: in vivo, time 1-24 hrs
[25] = Oral bioavailability in Sprague-Dawley rat measured at 12.5 mg/kg for 1 to 24 hrs by HPLC-MS/MS analysis; format: ADME, organism-based; conditions: in vivo, time 1-24 hrs
[26] = Oral bioavailability in CD-1 mouse measured at 5 mg/kg for 1 to 24 hrs by HPLC-MS/MS analysis; format: ADME, organism-based; conditions: in vivo, time 1-24 hrs
[27] = test system: NIH3T3; experiment: Antitumor activity against mouse 3T3 cells allografted in athymic nu/nu CD-1 mouse assessed as tumor regression at 75 mg/kg, po for 12 days relative to control; format: functional; conditions: time 12 day
[28] = Toxicity in athymic nu/nu CD-1 mouse allografted with mouse 3T3 cells expressing human IGF-1R assessed as loss in body weight at 75 mg/kg, po for 12 days relative to control; format: organism-based, NIH3T3; conditions: in vivo, 288 h, time 12 day
[29] = Cmax in CD-1 mouse measured at 75 mg/kg, po for 1 to 24 hrs by HPLC-MS/MS analysis; format: ADME, organism-based; conditions: in vivo, time 1-24 hrs
[30] = AUC last in CD-1 mouse measured at 250 mg/kg, po for 1 to 24 hrs by HPLC-MS/MS analysis; format: ADME, organism-based; conditions: in vivo, time 1-24 hrs
[31] = Oral bioavailability in CD-1 mouse measured at 75 mg/kg for 1 to 24 hrs by HPLC-MS/MS analysis; format: ADME, organism-based; conditions: in vivo, time 1-24 hrs
[32] = Cmax in CD-1 mouse measured at 250 mg/kg, po for 1 to 24 hrs by HPLC-MS/MS analysis; format: ADME, organism-based; conditions: in vivo, time 1-24 hrs
[33] = AUC last in Sprague-Dawley rat measured at 12.5 mg/kg, po for 1 to 24 hrs by HPLC-MS/MS analysis; format: ADME, organism-based; conditions: in vivo, time 1-24 hrs
[34] = AUC last in Sprague-Dawley rat measured at 100 mg/kg, po for 1 to 24 hrs by HPLC-MS/MS analysis; format: ADME, organism-based; conditions: in vivo, time 1-24 hrs
[35] = Oral bioavailability in CD-1 mouse measured at 250 mg/kg for 1 to 24 hrs by HPLC-MS/MS analysis; format: ADME, organism-based; conditions: in vivo, time 1-24 hrs
[36] = Elimination half life in Sprague-Dawley rat measured at 5 mg/kg, iv for 1 to 24 hrs by HPLC-MS/MS analysis; format: ADME, organism-based; conditions: in vivo, time 1-24 hrs, read-out: beta t1/2 (converted)
[37] = Cmax in CD-1 mouse measured at 25 mg/kg, po for 1 to 24 hrs by HPLC-MS/MS analysis; format: ADME, organism-based; conditions: in vivo, time 1-24 hrs
[38] = Clearance in Beagle dog measured at 2.5 mg/kg, iv for 1 to 24 hrs by HPLC-MS/MS analysis; format: ADME, organism-based, Canis lupus familiaris; conditions: in vivo, time 1-24 hrs

Cmax [1]: 1.2 µM
bioavailability [2]: 100%
AUC(0-t) [3]: 1330 ng·h/mL
Vd [5]: 4.3 L/kg
IC50 [6]: > 10 µM
AUC(0-inf) [7]: 6950 ng·h/mL
Cmax [9]: 3.42 µM
Vd [10]: 0.79 L/kg
AUC(0-t) [12]: 26700 ng·h/mL
AUC(0-t) [13]: 6770 ng·h/mL
bioavailability [14]: 92%
concentration at 24 h [15]: 0.02 µM
Cmax [16]: 10 µM
bioavailability [18]: 64%
AUC(0-inf) [19]: 1070 ng·h/mL
clearance [20]: 4 mL/min/kg
IC50 [21]: > 10 µM
concentration at 24 h [23]: 4.77 µM
AUC(0-t) [24]: 87500 ng·h/mL
bioavailability [25]: 74%
bioavailability [26]: 98%
Cmax [29]: 16.8 µM
AUC(0-t) [30]: 317000 ng·h/mL
bioavailability [31]: 84%
Cmax [32]: 42 µM
AUC(0-t) [33]: 42800 ng·h/mL
AUC(0-t) [34]: 424000 ng·h/mL
bioavailability [35]: > 100%
half-life [36]: 2.64 h
Cmax [37]: 16 µM
clearance [38]: 39 mL/min/kg
Structure (SMILES): C[C@]1(O)C[C@@H](c2nc(-c3ccc4ccc(-c5ccccc5)nc4c3)c3c(N)nccn32)C1 [LINSITINIB]
Activity [4]: < 10%
Activity [8]: 0%
inhibition in vivo at 75 mg/kg [11]: 80%
inhibition in vivo at 25 mg/kg [17]: 60%
Activity [22]: Toxic
Activity [27]: 55%
Activity [28]: 16%
